Tests used:
[1] = Liquid
[2] = xn = mol fraction of the nth substance listed; conditions: Liquid, x1 = 1

CCCO [propan-1-ol]
mass density [kg/m3], [1]
Conditions | 100 kPa | 5000 kPa | 10000 kPa | 15000 kPa | 20000 kPa | 25000 kPa | 30000 kPa
303.15 K | 795.6 | 799.5 | 803.4 | 807 | 810.5 | 813.9 | 817.2
313.15 K | 787.6 | 791.6 | 795.7 | 799.5 | 803.2 | 806.7 | 810.1
323.15 K | 779.1 | 783.4 | 787.7 | 791.7 | 795.6 | 799.3 | 802.9
333.15 K | 770.6 | 775.1 | 779.6 | 783.9 | 787.9 | 791.8 | 795.5

CCCO [propan-1-ol] + Cc1ccccc1
mass density [kg/m3], [2]
Conditions | 100 kPa | 5000 kPa | 10000 kPa | 15000 kPa | 20000 kPa | 25000 kPa | 30000 kPa
303.15 K | 795.6 | 799.5 | 803.4 | 807 | 810.5 | 813.9 | 817.2
313.15 K | 787.6 | 791.6 | 795.7 | 799.5 | 803.2 | 806.7 | 810.1
323.15 K | 779.1 | 783.4 | 787.7 | 791.7 | 795.6 | 799.3 | 802.9
333.15 K | 770.6 | 775.1 | 779.6 | 783.9 | 787.9 | 791.8 | 795.5

Cc1ccccc1 [toluene]
mass density [kg/m3], [1]
Conditions | 100 kPa | 5000 kPa | 10000 kPa | 15000 kPa | 20000 kPa | 25000 kPa | 30000 kPa
303.15 K | 857.4 | 861.3 | 865.1 | 868.7 | 872.3 | 875.6 | 878.9
313.15 K | 848.1 | 852.1 | 856.2 | 860 | 863.7 | 867.2 | 870.7
323.15 K | 838.6 | 842.9 | 847.2 | 851.2 | 855.1 | 858.9 | 862.5
333.15 K | 829.2 | 833.7 | 838.2 | 842.5 | 846.6 | 850.5 | 854.3

Reference: the NIST ThermoML archive (doi:10.1021/je049685z)
